Values quoted from earlier work, collected in patent US9579322B2, “Methods for treating neurologic disorders” (EIP Pharma, LLC, priority 2014, dated 2017).

Details: animals; cited from earlier work

SMILES: NC(=O)c1ccc(N(C(N)=O)c2c(F)cccc2F)nc1-c1ccc(F)cc1F [VX-702]
- blood brain barrier penetration: non-blood-brain-barrier-penetrant
